Reference: ChEMBL document CHEMBL1201862, “PubChem BioAssay data set” (2004)
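Assay format: 96-well plates, 48-hour exposure. GI50 marks 50% less growth.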 The source made the active and inactive calls. No stated cut-off is given here; in the data, active = GI50 up to about 1.1 µM and inactive = higher.

How the values were obtained:
Assay in all cases: NCI anticancer screen, dose series, 48 h
[1] = system: HCT-15
[2] = system: HL-60
[3] = system: BT-549
[4] = system: MOLT-4
[5] = system: SF-268
[6] = system: SK-MEL-28
[7] = system: SW-620
[8] = system: MCF7
[9] = system: DU-145
[10] = system: HT-29
[11] = system: OVCAR-4
[12] = system: Malme-3M
[13] = system: COLO 205
[14] = system: U-251
[15] = system: UACC-257
[16] = system: A498
[17] = system: SNB-19
[18] = system: LOX IMVI
[19] = system: OVCAR-8

Compound	GI50 [1]	GI50 [2]	GI50 [3]	GI50 [4]	GI50 [5]	GI50 [6]	GI50 [7]	GI50 [8]	GI50 [9]	GI50 [10]	GI50 [11]	GI50 [12]	GI50 [13]	GI50 [14]	GI50 [15]	GI50 [16]	GI50 [17]	GI50 [18]	GI50 [19]
CC(C)(C)OC(=O)CCCCCNC(=O)CCCCCNC(=O)CCC(CN(CC(=O)OCc1ccccc1)CC(=O)OCc1ccccc1)N(CC(=O)OCc1ccccc1)CC(=O)OCc1ccccc1 (centres undefined)	> 100 µM	61.1 µM (inactive)	> 100 µM (inactive)	20.1 µM (inactive)	> 100 µM (inactive)	> 100 µM (inactive)	> 100 µM (inactive)	> 100 µM (inactive)	> 100 µM (inactive)	> 100 µM (inactive)	> 100 µM (inactive)	> 100 µM (inactive)	> 100 µM (inactive)	> 100 µM (inactive)	> 100 µM (inactive)	> 100 µM (inactive)	> 100 µM (inactive)	> 100 µM (inactive)	> 100 µM (inactive)
O=c1[nH]c(C23CC4CC(CC(C4)C2)C3)cc2c1c(=O)oc1ccccc12	13.8 µM	29.4 µM (inactive)	11.2 µM (inactive)	10.5 µM (inactive)	0.944 µM (active)	5.86 µM (inactive)	7.59 µM (inactive)	6 µM (inactive)	6.31 µM (inactive)	3.52 µM (inactive)	3.15 µM (inactive)	3.65 µM (inactive)	10 µM (inactive)	2.53 µM (inactive)	19.8 µM (inactive)	2.26 µM (inactive)	4.98 µM (inactive)	2.95 µM (inactive)	3.19 µM (inactive)
CCOc1cc2c(cc1OC(C)=O)C(=O)CC[C@H]1C3CC[C@H](OC(C)=O)[C@@]3(C)CC[C@H]21 (some centres undefined)	> 100 µM	> 100 µM (inactive)	> 100 µM (inactive)	> 100 µM (inactive)	> 100 µM (inactive)	> 100 µM (inactive)	> 100 µM (inactive)	> 100 µM (inactive)	> 100 µM (inactive)	> 100 µM (inactive)	> 100 µM (inactive)	> 100 µM (inactive)	> 100 µM (inactive)	> 100 µM (inactive)	> 100 µM (inactive)	> 100 µM (inactive)	> 100 µM (inactive)	> 100 µM (inactive)	> 100 µM (inactive)
C=C1C(=O)OC2CC(C)C3CC(O)OC(OCC)C3(C)CC12 (centres undefined)	8.38 µM	1.14 µM (inactive)	> 41.8 µM (inactive)	16.7 µM (inactive)	18 µM (inactive)	13 µM (inactive)	6.85 µM (inactive)	13.3 µM (inactive)	33.6 µM (inactive)	17.8 µM (inactive)	21.7 µM (inactive)	10.9 µM (inactive)	15.8 µM (inactive)	17.1 µM (inactive)	16.3 µM (inactive)	28.1 µM (inactive)	26 µM (inactive)	6.01 µM (inactive)	15.7 µM (inactive)
C[N+](C)([O-])CCCNc1c2ccccc2nc2cccc([N+](=O)[O-])c12	0.457 µM	0.351 µM (active)	0.703 µM (active)	0.142 µM (active)	0.274 µM (active)	0.684 µM (active)	0.203 µM (active)	0.113 µM (active)	0.299 µM (active)	0.179 µM (active)	0.288 µM (active)	0.173 µM (active)	0.143 µM (active)	0.305 µM (active)	0.536 µM (active)	0.164 µM (active)	0.409 µM (active)	0.51 µM (active)	0.635 µM (active)
CCOc1cc(C2CC(c3ccc(NS(=O)(=O)c4cc([N+](=O)[O-])ccc4C)cc3)=NN2C(=O)c2ccccc2)ccc1O (centres undefined)	12.9 µM	17.2 µM (inactive)	20.1 µM (inactive)	19.4 µM (inactive)	15.7 µM (inactive)	36.5 µM (inactive)	32.8 µM (inactive)	17.3 µM (inactive)	32.7 µM (inactive)	26.5 µM (inactive)	24.6 µM (inactive)	13.8 µM (inactive)	16.4 µM (inactive)	18.7 µM (inactive)	18.2 µM (inactive)	10.2 µM (inactive)	29.6 µM (inactive)	26.9 µM (inactive)	15.2 µM (inactive)
